Data as given in patent US12252488B2 (Nimbus Saturn, Inc., priority 2021, dated 2025).

Target: T1, HPK1 (Homo sapiens, UniProt Q92918)
T1 construct: purchased Invitrogen
Assay: HPK1 biochemical enzyme assay (microfluidic mobility shift assay)
Settings: 1000 uM (1 mM) ATP; Caliper mobility shift; 1.5 nM HPK1; 30 min preincubation; read-out: HPK1 1000UMATP caliper IC50
How it was run: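 Microfluidic mobility-shift readout with 1.5 nM HPK1 in pH 7.4 buffer; compounds (ten-point curves, top 3 μM final) preincubated 30 min with enzyme/substrate. Reaction started with 1 mM ATP and 1 μM substrate plus 5 mM MgCl2, run 60 min at RT. IC50 values binned into activity classes.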

T1 sequence (Q92918 whole entry): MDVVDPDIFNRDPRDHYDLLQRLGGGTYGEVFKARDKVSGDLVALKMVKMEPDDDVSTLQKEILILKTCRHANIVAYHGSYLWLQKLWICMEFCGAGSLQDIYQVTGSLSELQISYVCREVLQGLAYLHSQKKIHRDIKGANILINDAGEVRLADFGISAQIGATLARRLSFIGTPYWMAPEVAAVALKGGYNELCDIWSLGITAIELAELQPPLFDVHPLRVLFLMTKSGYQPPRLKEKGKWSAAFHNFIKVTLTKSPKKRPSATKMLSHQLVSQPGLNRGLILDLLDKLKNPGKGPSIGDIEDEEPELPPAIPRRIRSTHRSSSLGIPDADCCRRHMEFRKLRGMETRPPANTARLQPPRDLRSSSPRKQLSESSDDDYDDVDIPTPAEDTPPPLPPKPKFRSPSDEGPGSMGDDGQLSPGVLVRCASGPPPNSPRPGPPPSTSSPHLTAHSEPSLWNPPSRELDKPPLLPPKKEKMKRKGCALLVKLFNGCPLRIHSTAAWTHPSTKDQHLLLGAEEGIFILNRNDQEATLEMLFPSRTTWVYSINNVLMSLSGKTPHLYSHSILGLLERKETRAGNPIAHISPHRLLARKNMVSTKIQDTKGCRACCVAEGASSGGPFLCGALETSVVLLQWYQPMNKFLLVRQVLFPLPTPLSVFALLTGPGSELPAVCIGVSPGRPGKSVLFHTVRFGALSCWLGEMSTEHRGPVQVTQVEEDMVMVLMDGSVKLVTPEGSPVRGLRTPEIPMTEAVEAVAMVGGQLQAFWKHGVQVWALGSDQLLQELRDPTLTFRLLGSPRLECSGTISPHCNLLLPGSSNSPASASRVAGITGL

IC50 [µM]	Structure (SMILES)
≤ 0.1	CC(C)c1ccc(F)c(-c2cc(Nc3ccc(N4CCN(C)CC4)cn3)c3c(=O)[nH]ccc3n2)c1 [I-109, 2-(2-fluoro-5-isopropyl-phenyl)-4-[[5-(4-methyl-piperazin-1-yl)-2-pyridyl]amino]-6H-1,6-naphthyridin-5-one]
≤ 0.1	CC(C)c1ccc(F)c(-c2cc(Nc3ccc(N4CCNCC4)cn3)c3c(=O)[nH]ccc3n2)c1 [I-110, 2-(2-fluoro-5-isopropyl-phenyl)-4-[(5-piperazin-1-yl-2-pyridyl)amino]-6H-1,6-naphthyridin-5-one]
> 1	O=C(Nc1ccc(-c2cc(Nc3ccc(N4CCC(O)CC4)cn3)c3c(=O)[nH]ccc3n2)c(F)c1)C1CCCCC1 [I-111, N-[3-fluoro-4-[4-[[5-(4-hydroxy-1-piperidyl)-2-pyridyl]amino]-5-oxo-6H-1,6-naphthyridin-2-yl]phenyl] cyclohexane carboxamide]
> 1	COc1cc(-c2cc(Nc3ccc(N4CCC(O)CC4)cn3)c3c(=O)[nH]ccc3n2)c(F)cc1C(=O)N1CCCCC1 [I-112, 2-[2-fluoro-5-methoxy-4-(piperidine-1-carbonyl)phenyl]-4-[[5-(4-hydroxy-1-piperidyl)-2-pyridyl]amino]-6H-1,6-naphthyridin-5-one]
0.1 to 1	Cc1c(C(=O)N2CCCCC2)ccc(-c2cc(Nc3ccc(N4CCC(O)CC4)cn3)c3c(=O)[nH]ccc3n2)c1F [I-113, 2-[2-fluoro-3-methyl-4-(piperidine-1-carbonyl)phenyl]-4-[[5-(4-hydroxy-1-piperidyl)-2-pyridyl]amino]-6H-1,6-naphthyridin-5-one]
≤ 0.1	Cc1cc(-c2cc(Nc3ccc(N4CCC(O)CC4)cn3)c3c(=O)[nH]ccc3n2)c(F)cc1C(=O)N1CCCCC1 [I-114, 2-[2-fluoro-5-methyl-4-(piperidine-1-carbonyl)phenyl]-4-[[5-(4-hydroxy-1-piperidyl)-2-pyridyl]amino]-6H-1,6-naphthyridin-5-one]
≤ 0.1	O=C(c1ccc(-c2cc(Nc3ccc(N4CCC(O)CC4)cn3)c3c(=O)[nH]ccc3n2)c(F)c1)N1CCCC1 [I-115, 2-[2-fluoro-4-(pyrrolidine-1-carbonyl)phenyl]-4-[[5-(4-hydroxy-1-piperidyl)-2-pyridyl]amino]-6H-1,6-naphthyridin-5-one]
0.1 to 1	CC(C)(O)c1ccc(F)c(-c2cc(Nc3ccc(N4CCC(O)CC4)cn3)c3c(=O)[nH]ccc3n2)c1 [I-116, 2-[2-fluoro-5-(1-hydroxy-1-methyl-ethyl)phenyl]-4-[[5-(4-hydroxy-1-piperidyl)-2-pyridyl]amino]-6H-1,6-naphthyridin-5-one]
0.1 to 1	CN(C)Cc1ccc(F)c(-c2cc(Nc3ccc(N4CCC(O)CC4)cn3)c3c(=O)[nH]ccc3n2)c1 [I-117, 2-[5-[(dimethyl-amino)methyl]-2-fluoro-phenyl]-4-[[5-(4-hydroxy-1-piperidyl)-2-pyridyl]amino]-6H-1,6-naphthyridin-5-one]
0.1 to 1	O=c1[nH]ccc2nc(-c3cc4[nH]ccc4cc3F)cc(Nc3ccc(N4CCC(O)CC4)cn3)c12 [I-118, 2-(5-fluoro-1H-indol-6-yl)-4-[[5-(4-hydroxy-1-piperidyl)-2-pyridyl]amino]-6H-1,6-naphthyridin-5-one]
0.1 to 1	O=C(c1ccc(-c2cc(Nc3ccc(N4CCC(O)CC4)cn3)c3c(=O)[nH]ccc3n2)c(F)c1)N1CCNCC1 [I-119, 2-[2-fluoro-4-(piperazine-1-carbonyl)phenyl]-4-[[5-(4-hydroxy-1-piperidyl)-2-pyridyl]amino]-6H-1,6-naphthyridin-5-one]
0.1 to 1	O=C(c1ccc(-c2cc(Nc3ccc(N4CCC(O)CC4)cn3)c3c(=O)[nH]ccc3n2)c(F)c1)N1CCOCC1 [I-120]
≤ 0.1	CC(C)c1ccc(F)c(-c2cc(Nc3ccc(N4CCC5(CCOCC5)CC4)cn3)c3c(=O)[nH]ccc3n2)c1 [I-121, 2-(2-fluoro-5-isopropyl-phenyl)-4-[[5-(3-oxa-9-azaspiro [5.5]undecan-9-yl)-2-pyridyl]amino]-6H-1,6-naphthyridin-5-one]
0.1 to 1	CC(C)c1ccc(F)c(-c2cc(Nc3ccc(N4[C@H](C)COC[C@H]4C)cn3)c3c(=O)[nH]ccc3n2)c1 [I-122, 4-[[5-[(3R,5R)-3,5-dimethyl-morpholin-4-yl]-2-pyridyl]amino]-2-(2-fluoro-5-isopropyl-phenyl)-6H-1,6-naphthyridin-5-one]
≤ 0.1	CC(O)(c1ccc(F)c(-c2cc(Nc3ccc(N4CCC(O)CC4)cn3)c3c(=O)[nH]ccc3n2)c1)C(F)(F)F (stereo not shown) [I-123, 2-[2-fluoro-5-(2,2,2-trifluoro-1-hydroxy-1-methyl-ethyl)phenyl]-4-[[5-(4-hydroxy-1-piperidyl)-2-pyridyl]amino]-6H-1,6-naphthyridin-5-one]
0.1 to 1	O=C(c1ccc(-c2cc(Nc3ccc(N4CCC(O)CC4)cn3)c3c(=O)[nH]ccc3n2)c(F)c1)N1CC2CCC1CC2 [I-124, 2-[4-(3-azabicyclo [2.2.2]octane-3-carbonyl)-2-fluoro-phenyl]-4-[[5-(4-hydroxy-1-piperidyl)-2-pyridyl]amino]-6H-1,6-naphthyridin-5-one]

IC50 [µM]	Structure (SMILES)
≤ 0.1	COC(=O)c1ccc(-c2cc(Nc3ccc(N4CCC(O)CC4)cn3)c3c(=O)[nH]ccc3n2)c(F)c1 [I-125, Methyl 3-fluoro-4-[4-[[5-(4-hydroxy-1-piperidyl)-2-pyridyl]amino]-5-oxo-6H-1,6-naphthyridin-2-yl]benzoate]
0.1 to 1	O=C(c1ccc(-c2cc(Nc3ccc(N4CCC(O)CC4)cn3)c3c(=O)[nH]ccc3n2)c(F)c1)N1CCC1 [I-126, 2-[4-(azetidine-1-carbonyl)-2-fluoro-phenyl]-4-[[5-(4-hydroxy-1-piperidyl)-2-pyridyl]amino]-6H-1,6-naphthyridin-5-one]
0.1 to 1	O=c1[nH]ccc2nc(-c3ccc(CN4CCCCC4)cc3F)cc(Nc3ccc(N4CCC(O)CC4)cn3)c12 [I-127]
0.1 to 1	CCNC(=O)C(C)(C)c1ccc(Nc2cc(-c3cc(C(C)C)ccc3F)nc3cc[nH]c(=O)c23)nc1 [I-128, N-ethyl-2-[6-[[2-(2-fluoro-5-isopropyl-phenyl)-5-oxo-6H-1,6-naphthyridin-4-yl]amino]-3-pyridyl]-2-methyl-propanamide]
0.1 to 1	CC(C)c1ccc(F)c(-c2cc(Nc3ccc(N4[C@@H](C)COC[C@@H]4C)cn3)c3c(=O)[nH]ccc3n2)c1 [I-129, 4-[[5-[(3S,5S)-3,5-dimethyl-morpholin-4-yl]-2-pyridyl]amino]-2-(2-fluoro-5-isopropyl-phenyl)-6H-1,6-naphthyridin-5-one]
≤ 0.1	CC1CCCCN1C(=O)c1ccc(-c2cc(Nc3ccc(N4CCC(O)CC4)cn3)c3c(=O)[nH]ccc3n2)c(F)c1 (stereo not shown) [I-130, 2-[2-fluoro-4-(2-methyl-piperidine-1-carbonyl)phenyl]-4-[[5-(4-hydroxy-1-piperidyl)-2-pyridyl]amino]-6H-1,6-naphthyridin-5-one]
0.1 to 1	CN1CCN(C(=O)c2ccc(-c3cc(Nc4ccc(N5CCC(O)CC5)cn4)c4c(=O)[nH]ccc4n3)c(F)c2)CC1 [I-131, 2-[2-fluoro-4-(4-methyl-piperazine-1-carbonyl)phenyl]-4-[[5-(4-hydroxy-1-piperidyl)-2-pyridyl]amino]-6H-1,6-naphthyridin-5-one]
0.1 to 1	N#CC1CCN(C(=O)c2ccc(-c3cc(Nc4ccc(N5CCC(O)CC5)cn4)c4c(=O)[nH]ccc4n3)c(F)c2)CC1 [I-132, 1-[3-fluoro-4-[4-[[5-(4-hydroxy-1-piperidyl)-2-pyridyl]amino]-5-oxo-6H-1,6-naphthyridin-2-yl]benzoyl] piperidine-4-carbonitrile]
≤ 0.1	COC1CCCN(C(=O)c2ccc(-c3cc(Nc4ccc(N5CCC(O)CC5)cn4)c4c(=O)[nH]ccc4n3)c(F)c2)C1 (stereo not shown) [I-133, 2-[2-fluoro-4-(3-methoxy-piperidine-1-carbonyl)phenyl]-4-[[5-(4-hydroxy-1-piperidyl)-2-pyridyl]amino]-6H-1,6-naphthyridin-5-one]
≤ 0.1	O=C(O)c1ccc(-c2cc(Nc3ccc(N4CCC(O)CC4)cn3)c3c(=O)[nH]ccc3n2)c(F)c1 [I-134, 3-Fluoro-4-[4-[[5-(4-hydroxy-1-piperidyl)-2-pyridyl]amino]-5-oxo-6H-1,6-naphthyridin-2-yl]benzoic Acid]
≤ 0.1	CC1CCCN(C(=O)c2ccc(-c3cc(Nc4ccc(N5CCC(O)CC5)cn4)c4c(=O)[nH]ccc4n3)c(F)c2)C1 (stereo not shown) [I-135, 2-[2-fluoro-4-(3-methyl-piperidine-1-carbonyl)phenyl]-4-[[5-(4-hydroxy-1-piperidyl)-2-pyridyl]amino]-6H-1,6-naphthyridin-5-one]
≤ 0.1	COC1CCN(C(=O)c2ccc(-c3cc(Nc4ccc(N5CCC(O)CC5)cn4)c4c(=O)[nH]ccc4n3)c(F)c2)CC1 [I-136, 2-[2-fluoro-4-(4-methoxy-piperidine-1-carbonyl)phenyl]-4-[[5-(4-hydroxy-1-piperidyl)-2-pyridyl]amino]-6H-1,6-naphthyridin-5-one]
≤ 0.1	O=C(c1ccc(-c2cc(Nc3ccc(N4CCC(O)CC4)cn3)c3c(=O)[nH]ccc3n2)c(F)c1)N1CC2CCC1C2 (stereo not shown) [I-137, 2-[4-(3-azabicyclo [2.2.1]heptane-3-carbonyl) 2-fluoro-phenyl]-4-[[5-(4-hydroxy-1-piperidyl)-2-pyridyl]amino]-6H-1,6-naphthyridin-5-one]
0.1 to 1	O=C(c1ccc(-c2cc(Nc3ccc(N4CCC(O)CC4)cn3)c3c(=O)[nH]ccc3n2)c(F)c1)N1CC2C(C1)C2(F)F (stereo not shown) [I-138, 2-[4-(6,6-difluoro-3-azabicyclo [3.1.0]hexane-3-carbonyl)-2-fluoro-phenyl]-4-[[5-(4-hydroxy-1-piperidyl)-2-pyridyl]amino]-6H-1,6-naphthyridin-5-one]
≤ 0.1	O=C(NC1CCCCC1)c1ccc(-c2cc(Nc3ccc(N4CCC(O)CC4)cn3)c3c(=O)[nH]ccc3n2)c(F)c1 [I-139, N-cyclohexyl-3-fluoro-4-[4-[[5-(4-hydroxy-1-piperidyl)-2-pyridyl]amino]-5-oxo-6H-1,6-naphthyridin-2-yl] benzamide]
